Test results reported in ChEMBL document CHEMBL3351513, “Norbornane-based nucleoside and nucleotide analogues locked in North conformation” (Bioorg Med Chem, 2015).
Activity calls are given as the source filed them. The calls are words filed in the database; no cut-off is given here.

Tests used:
[1] = Inhibition of human PI4K3beta expressed in Escherichia coli BL21 after 60 mins by ADP-GloTM Kinase Assay
Influenza A virus [2] = test: Antiviral activity against influenza A virus H1N1 infected in MDCK cells assessed as inhibition of virus-induced cytopathic effect
[3] = system: Human immunodeficiency virus 1; test: Antiviral activity against HIV1 3B infected in human CEM cells assessed as inhibition of virus-induced syncytium formation by microscopy; settings: Human immunodeficiency virus 1, 3B, CCRF-CEM
HeLa = test: Cytostatic activity against human HeLa cells after 72 hrs by Coulter counting
L1210 = test: Cytostatic activity against mouse L1210 cells after 48 hrs by Coulter counting; settings: L1210, 48 h
[4] = Cytotoxicity against cat CRFK cells; type: cell-based, Felis catus
Coxsackievirus B4 = test: Antiviral activity against Coxsackievirus B4 infected in african green monkey Vero cells assessed as inhibition of virus-induced cytopathicity; type: functional, organism-based; settings: for EC50: Enterovirus B
[5] = Cytotoxicity against human CEM cells infected with HIV1; type: cell-based, CCRF-CEM; settings: CEM cells infected with HIV-1
[6] = Cytotoxicity against human CEM cells infected with HIV2; type: cell-based, CCRF-CEM
MDCK = test: Cytotoxicity against MDCK cells; settings: Canis lupus familiaris
[7] = Inhibition of human PI4K3alpha expressed in Escherichia coli BL21 after 60 mins by ADP-GloTM Kinase Assay
Felid alphaherpesvirus 1 [8] = test: Antiviral activity against Feline herpesvirus 1 infected in cat CRFK cells assessed as inhibition of virus induced cytopathicity; settings: Felid alphaherpesvirus 1, CRFK
CCRF-CEM = test: Cytostatic activity against human CEM cells after 72 hrs by Coulter counting
[9] = system: Human immunodeficiency virus 2; test: Antiviral activity against HIV2 ROD infected in human CEM cells assessed as inhibition of virus-induced syncytium formation by microscopy; settings: Human immunodeficiency virus 2, ISOLATE ROD, CCRF-CEM
[10] = Cytotoxicity against african green monkey Vero cells; type: cell-based; settings: chlorocebus sabaeus
[11] = system: Human immunodeficiency virus 2; test: Antiviral activity against HIV2 ROD infected in human CEM cells assessed as inhibition of virus-induced syncytium formation at 100 uM by microscopy; type: functional, organism-based; settings: ISOLATE ROD, CCRF-CEM
[12] = system: Human immunodeficiency virus 1; test: Antiviral activity against HIV1 3B infected in human CEM cells assessed as inhibition of virus-induced syncytium formation at 100 uM by microscopy; type: functional, organism-based; settings: CCRF-CEM
Felid alphaherpesvirus 1 [13] = test: Antiviral activity against Feline herpesvirus 1 infected in cat CRFK cells assessed as inhibition of virus induced cytopathicity at 100 uM; type: functional, organism-based
Influenza A virus [14] = test: Antiviral activity against influenza A virus H1N1 infected in MDCK cells assessed as inhibition of virus-induced cytopathic effect at 100 uM; type: functional, organism-based

Structure (SMILES)	IC50 (HeLa)	IC50 (L1210)	inhibition (Coxsackievirus B4)	IC50 (CCRF-CEM)	other results
Nc1ncnc2c1ncn2[C@@H]1C[C@@]2(CO)CC[C@@H]1C2	609 µM	408 µM	inactive	> 386 µM	IC50 [1]: > 100 µM; EC50 (Influenza A virus [2]): 179 µM; EC50 [3]: 100 µM; CC50 [4]: > 386 µM; CC50 [5]: > 386 µM; CC50 [6]: > 386 µM; EC50 (MDCK): > 386 µg/mL; IC50 [7]: > 100 µM; EC50 (Felid alphaherpesvirus 1 [8]): 58 µM; EC50 [9]: 231 µM
OC[C@]12CC[C@H](C1)[C@H](n1cnc3c(Cl)ncnc31)C2 (relative stereo)					CC50 [10]: > 359 µM; EC50 (Coxsackievirus B4): 25 µM
Nc1nc(Cl)c2ncn([C@@H]3C[C@@]4(CO)CC[C@@H]3C4)c2n1 (relative stereo)	> 340 µM	139 µM		88 µM	CC50 [10]: > 359 µM; EC50 (Coxsackievirus B4): 31 µM
COC(=O)[C@H](C)NP(=O)(OC[C@]12CC[C@H](C1)[C@H](n1cnc3c(NC4CC4)ncnc31)C2)Oc1ccccc1 (relative stereo)	136 µM	129 µM		78 µM	
COC(=O)[C@H](C)NP(=O)(OC[C@]12CC[C@H](C1)[C@H](n1cnc3c(N)ncnc31)C2)Oc1ccccc1 (relative stereo)	> 200 µM	160 µM		≥ 200 µM	inhibition [11]: inactive; inhibition [12]: inactive; inhibition (Felid alphaherpesvirus 1 [13]): inactive; inhibition (Influenza A virus [14]): inactive
Nc1nc(N)c2ncn([C@@H]3C[C@@]4(CO)CC[C@@H]3C4)c2n1 (relative stereo)	190 µM	179 µM		174 µM	
Nc1nc(NC2CC2)c2ncn([C@@H]3C[C@@]4(CO)CC[C@@H]3C4)c2n1 (relative stereo)	101 µM	146 µM		124 µM	
CN(C)c1ncnc2c1ncn2[C@@H]1C[C@@]2(CO)CC[C@@H]1C2 (relative stereo)			inactive		
OC[C@]12CC[C@H](C1)[C@H](n1cnc3c(=S)[nH]cnc31)C2 (relative stereo)			inactive		
OC[C@]12CC[C@H](C1)[C@H](n1cnc3c(NC4CC4)ncnc31)C2 (relative stereo)			inactive		
O=c1[nH]cc(F)c(=O)[nH]1 [FLUOROURACIL]	2.6 µM				
